Test results from patent US20260256929A1, “PROTEASE/ENZYME CLEAVABLE LINKER-PAYLOADS AND PROTEIN CONJUGATES” (priority 2022, published 2026).
Where two headings read alike, the source gives them in different places.

How the values were obtained:
Format in all cases: cell-based
NCI-H2343 = test: Free drug cell killing activity (cell proliferation assay, Cell Titer-Glo)
MDA-MB-231 = test: as above; settings: for EC50: Homo sapiens
HCC1937 = test: as above; settings: for EC50: Homo sapiens
Protocol: (§1) The in vitro cell killing activity of exatecan, gly-exatecan, and hemiasterlin were evaluated in a panel of breast cancer and lung cancer cell lines.
(§2) MDA-MB-361, SKBR3, BT20, HCC38, HCC1143, HCC1937, JIMT1, MCF-7, A549, NCI-H441, NCI-H520, NCI-H1703, NCI-H1975, NCI-H2110, NCI-H226, NCI-H292, NCI-H358 cells were purchased from ATCC (American Type Culture Collection, Manassas, VA, USA). All the cell lines were maintained in DMEM/F12 (1:1), high glucose (Corning, Corning, NY) supplemented with 10% heat-inactivated fetal bovine serum (Thermo Scientific, Grand Island, NY), 2 mM glutamax (Thermo Scientific, Grand Island, NY), and 1× Penicillin/Streptomycin (Corning, Corning, NY). Cytotoxicity effect of the Exatecan warhead was measured with a cell proliferation assay. Cells were seeded in a 384-well flat bottom white polystyrene plate at 625 cells/25 uL the day before the actual assay starts. Exatecan was formulated at 2× starting concentration in cell culture medium, serial diluted (1:3) under sterile conditions and added onto cells in triplicates. Plates were cultured at 37° C. in a CO2 incubator for 120 hours. For cell viability measurement, 30 microliter of Cell Titer-Glo® reagent (Promega Corp, Madison, WI) was added into each well, and plates processed as per product instructions. Relative luminescence was measured on an ENVISION® plate reader (Perkin-Elmer; Waltham, MA). Relative luminescence readings were converted to % viability using untreated cells as controls. Data was fitted with non-linear regression analysis, using log (inhibitor) vs. response, variable slope, 4-parameter fit equation using GraphPad Prism.

NCI-H226 = test: as above; settings: for EC50: Homo sapiens
Protocol: as §1, §2

MCF-7 = test: as above; settings: for EC50: Homo sapiens
Protocol: as §1, §2

HCC38 = test: as above; settings: for EC50: Homo sapiens
Protocol: as §1, §2

HCC1143 = test: as above; settings: for EC50: Homo sapiens
Protocol: as §1, §2

NCI-H441 = test: as above; settings: for EC50: Homo sapiens
Protocol: as §1, §2

A549 = test: as above; settings: for EC50: Homo sapiens
Protocol: as §1, §2

MDA-MB-361 = test: as above; settings: for EC50: Homo sapiens
Protocol: as §1, §2

NCI-H2110 = test: as above
Protocol: as §1, §2

SKBR3 = test: as above; settings: for EC50: Homo sapiens
Protocol: as §1, §2

NCI-H520 = test: as above; settings: NCI-H520, 120 hours; for EC50: Homo sapiens
Protocol: as §1, §2

NCI-H292 = test: as above; settings: for EC50: Homo sapiens
Protocol: as §1, §2

NCI-H1703 = test: as above; settings: for EC50: Homo sapiens
Protocol: as §1, §2

BT20 = test: as above; settings: for EC50: Homo sapiens
Protocol: as §1, §2

NCI-H358 = test: as above; settings: for EC50: Homo sapiens
Protocol: as §1, §2

JIMT1 = test: as above; settings: for EC50: Homo sapiens
Protocol: as §1, §2

NCI-H1975 = test: as above; settings: for EC50: Homo sapiens
Protocol: as §1, §2

[1] = system: panel of breast cancer and lung cancer cell lines; test: Free drug cell killing activity across the whole panel; settings: all the cell lines tested (Table 2), 120 hours; read-out: EC50 values ranging over all the cell lines tested
Protocol: as §1
as §2, with “For cell viability measurement, 30 microliter of Cell Titer-Glo® reagent (Promega Corp, Madison, WI) was added into each well, and plates processed as per product instructions.” left out, “Data was fitted with non-linear regression analysis, using log (inhibitor) vs. response, variable slope, 4-parameter fit equation using GraphPad Prism.” left out

MDA-MB-468 = test: Free drug cell killing activity (cell proliferation assay, Cell Titer-Glo); settings: for EC50: Homo sapiens

## CC[C@@]1(O)C(=O)OCc2c1cc1n(c2=O)Cc2c-1nc1cc(F)c(C)c3c1c2[C@@H](N)CC3 [Exatecan, exatecan]
NCI-H2343; 120 h
  EC50: 12 nM
NCI-H2343; NCI-H2343, 120 hours
  Span (%): 70%
MDA-MB-231; MDA-MB-231, 120 h
  EC50: 0.84 nM
MDA-MB-231; MDA-MB-231, 120 hours
  Span (%): 64%
HCC1937; HCC1937, 120 hours
  Span (%): 94%
HCC1937; HCC1937, 120 h
  EC50: 3.5 nM
NCI-H226; NCI-H226, 120 h
  EC50: 1.08 nM
NCI-H226; NCI-H226, 120 hours
  Span (%): 98%
MCF-7; MCF7, 120 h
  EC50: 1.2 nM
MCF-7; MCF-7, 120 hours
  Span (%): 83%
HCC38; HCC38, 120 hours
  Span (%): 96%
HCC38; HCC38, 120 h
  EC50: 0.38 nM
HCC1143; HCC1143, 120 hours
  Span (%): 76%
HCC1143; HCC1143, 120 h
  EC50: 0.85 nM
NCI-H441; NCI-H441, 120 h
  EC50: 0.32 nM
NCI-H441; NCI-H441, 120 hours
  Span (%): 93%
A549; A549, 120 hours
  Span (%): 96%
A549; A549, 120 h
  EC50: 1.2 nM
MDA-MB-361; MDA-MB-361, 120 h
  EC50: 1.2 nM
MDA-MB-361; MDA-MB-361, 120 hours
  Span (%): 96%
NCI-H2110; NCI-H2110, 120 h
  EC50: 0.61 nM
NCI-H2110; NCI-H2110, 120 hours
  Span (%): 91%
SKBR3; SK-BR-3, 120 h
  EC50: 0.39 nM
SKBR3; SKBR3, 120 hours
  Span (%): 96%
NCI-H520
  EC50: 0.6 nM
  Span (%): 96%
NCI-H292; NCI-H292, 120 h
  EC50: 0.36 nM
NCI-H292; NCI-H292, 120 hours
  Span (%): 98%
NCI-H1703; NCI-H1703, 120 h
  EC50: 1.1 nM
NCI-H1703; NCI-H1703, 120 hours
  Span (%): 93%
BT20; BT20, 120 hours
  Span (%): 96%
BT20; BT-20, 120 h
  EC50: 0.91 nM
NCI-H358; NCI-H358, 120 h
  EC50: 0.53 nM
NCI-H358; NCI-H358, 120 hours
  Span (%): 96%
JIMT1; JIMT-1, 120 h
  EC50: 1.6 nM
JIMT1; JIMT1, 120 hours
  Span (%): 98%
NCI-H1975; NCI-H1975, 120 h
  EC50: 0.87 nM
NCI-H1975; NCI-H1975, 120 hours
  Span (%): 90%
[1]
  EC50: 0.32 to 4.2 nM
MDA-MB-468; MDA-MB-468, 120 h
  EC50: 0.59 nM
MDA-MB-468; MDA-MB-468, 120 hours
  Span (%): 97%

## CC[C@@]1(O)C(=O)OCc2c1cc1n(c2=O)Cc2c-1nc1cc(F)c(C)c3c1c2[C@@H](NC(=O)CN)CC3 [Gly-exatecan, gly-exatecan]
NCI-H2343; NCI-H2343, 120 hours
  Span (%): 55%
NCI-H2343; NCI-H2343, 120 hours, read-out: EC50
  EC50: 30 nM
MDA-MB-231; MDA-MB-231, 120 hours, read-out: EC50
  EC50: 3.8 nM
MDA-MB-231; MDA-MB-231, 120 hours
  Span (%): 60%
HCC1937; HCC1937, 120 hours
  Span (%): 87%
HCC1937; HCC1937, 120 hours, read-out: EC50
  EC50: 35 nM
NCI-H226; NCI-H226, 120 hours, read-out: EC50
  EC50: 23 nM
NCI-H226; NCI-H226, 120 hours
  Span (%): 99%
MCF-7; MCF7, MCF-7, 120 hours, read-out: EC50
  EC50: 8.8 nM
MCF-7; MCF-7, 120 hours
  Span (%): 75%
HCC38; HCC38, 120 hours
  Span (%): 93%
HCC38; HCC38, 120 hours, read-out: EC50
  EC50: 6.1 nM
HCC1143; HCC1143, 120 hours
  Span (%): 76%
HCC1143; HCC1143, 120 hours, read-out: EC50
  EC50: 14 nM
NCI-H441; NCI-H441, 120 hours, read-out: EC50
  EC50: 5.1 nM
NCI-H441; NCI-H441, 120 hours
  Span (%): 90%
A549; A549, 120 hours
  Span (%): 90%
A549; A549, 120 hours, read-out: EC50
  EC50: 44 nM
MDA-MB-361; MDA-MB-361, 120 hours, read-out: EC50
  EC50: 4.5 nM
MDA-MB-361; MDA-MB-361, 120 hours
  Span (%): 98%
NCI-H2110; NCI-H2110, 120 hours
  Span (%): 89%
NCI-H2110; NCI-H2110, 120 hours, read-out: EC50
  EC50: 9.2 nM
SKBR3; SK-BR-3, SKBR3, 120 hours, read-out: EC50
  EC50: 4.2 nM
SKBR3; SKBR3, 120 hours
  Span (%): 95%
NCI-H520
  EC50: 11 nM
  Span (%): 80%
NCI-H292; NCI-H292, 120 hours, read-out: EC50
  EC50: 4 nM
NCI-H292; NCI-H292, 120 hours
  Span (%): 94%
NCI-H1703; NCI-H1703, 120 hours, read-out: EC50
  EC50: 25 nM
NCI-H1703; NCI-H1703, 120 hours
  Span (%): 91%
BT20; BT20, 120 hours
  Span (%): 92%
BT20; BT-20, BT20, 120 hours, read-out: EC50
  EC50: 21 nM
NCI-H358; NCI-H358, 120 hours, read-out: EC50
  EC50: 7.5 nM
NCI-H358; NCI-H358, 120 hours
  Span (%): 95%
JIMT1; JIMT-1, JIMT1, 120 hours, read-out: EC50
  EC50: 15 nM
JIMT1; JIMT1, 120 hours
  Span (%): 70%
NCI-H1975; NCI-H1975, 120 hours, read-out: EC50
  EC50: 43 nM
NCI-H1975; NCI-H1975, 120 hours
  Span (%): 84%
[1]
  EC50: 3.8 to 44 nM
MDA-MB-468; MDA-MB-468, 120 hours, read-out: EC50
  EC50: 5.3 nM
MDA-MB-468; MDA-MB-468, 120 hours
  Span (%): 91%
